Measured values: ChEMBL document CHEMBL1201862, “PubChem BioAssay data set” (2004)
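Method: 48-hour compound exposure of cells in 96-well plates, five concentrations, linear interpolation of endpoints. GI50 = concentration required for 50% inhibition of growth.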 Active and inactive are the calls of the source. No stated cut-off is given here; in the data, active = GI50 up to about 1.1 µM and inactive = higher.

Assays:
Assay in all cases: NCI anticancer screen, dose series, 48 h
[1] = tested on: 786-0
[2] = tested on: ACHN
[3] = tested on: HCC 2998
[4] = tested on: HCT-116
[5] = tested on: HOP-92
[6] = tested on: KM12
[7] = tested on: LOX IMVI
[8] = tested on: M14
[9] = tested on: MOLT-4
[10] = tested on: Malme-3M
[11] = tested on: NCI-H226
[12] = tested on: NCI-H23
[13] = tested on: OVCAR-4
[14] = tested on: OVCAR-5
[15] = tested on: SF-295
[16] = tested on: SK-MEL-2
[17] = tested on: SK-OV-3
[18] = tested on: UACC-257
[19] = tested on: UO-31

Measured: GI50

CC(=O)OC1OC(c2ccoc2)C[C@@]12C1CCC3O[C@]3(C)[C@]1(C)[C@H](OC(C)=O)[C@H](OC(C)=O)[C@H]2C (stereo partly drawn)
inactive: [1] > 37.5 µM | [2] > 37.5 µM | [3] > 37.5 µM | [4] > 37.5 µM | [5] > 37.5 µM | [6] > 37.5 µM | [7] 28.1 µM | [8] > 37.5 µM | [9] 18.5 µM | [10] > 37.5 µM | [11] > 37.5 µM | [12] 30.3 µM | [13] > 37.5 µM | [14] > 37.5 µM | [15] > 37.5 µM | [16] > 37.5 µM | [17] > 37.5 µM | [18] > 37.5 µM | [19] > 37.5 µM

NNC(=O)C(=O)N/N=C1\CCCC1C(=O)CCC(=O)Nc1cccc(Cl)c1 (stereo not drawn)
inactive: [1] > 100 µM | [2] > 100 µM | [3] > 100 µM | [4] > 100 µM | [5] > 100 µM | [6] > 100 µM | [7] > 100 µM | [8] > 100 µM | [9] > 100 µM | [10] > 100 µM | [11] > 100 µM | [12] > 100 µM | [13] > 100 µM | [14] > 100 µM | [15] > 100 µM | [16] > 100 µM | [18] > 100 µM | [19] > 100 µM

O=c1[nH]c2c(S)nc(O)nc2n1-c1ccccc1
inactive: [1] > 100 µM | [2] > 100 µM | [3] > 100 µM | [4] > 100 µM | [5] > 100 µM | [6] > 100 µM | [7] > 100 µM | [8] > 100 µM | [9] > 100 µM | [10] > 100 µM | [11] > 100 µM | [12] > 100 µM | [13] > 100 µM | [14] > 100 µM | [15] > 100 µM | [16] > 100 µM | [18] > 100 µM | [19] > 100 µM

O=C(c1ccccc1)C(c1ccccc1)C1(O)C(=O)Nc2c(Cl)cc(Cl)cc21 (stereo not drawn)
inactive: [1] 14.7 µM | [2] 17.1 µM | [3] 16.3 µM | [5] 18.9 µM | [6] 23 µM | [7] 19.5 µM | [8] 17.9 µM | [9] 20.3 µM | [10] 18.6 µM | [11] 16.7 µM | [12] 18 µM | [13] 13.7 µM | [14] 17.1 µM | [15] 17.7 µM | [16] 16.8 µM | [17] 30.2 µM | [18] 18.6 µM | [19] 18.9 µM

CCN(CC)CCOC(c1ccccc1)c1ccccc1.CCOC(=O)Nc1ccc(S(=O)(=O)NCCCl)cc1.CCOC(=O)Nc1ccc(S(=O)(=O)NCCCl)cc1.Nc1ccc(C(=O)O)c(O)c1
inactive: [1] > 100 µM | [2] > 100 µM | [3] > 100 µM | [4] > 100 µM | [5] > 100 µM | [6] > 100 µM | [7] > 100 µM | [8] > 100 µM | [9] > 100 µM | [10] > 100 µM | [11] > 100 µM | [12] > 100 µM | [13] > 100 µM | [14] > 100 µM | [15] > 100 µM | [16] > 100 µM | [17] > 100 µM | [18] > 100 µM | [19] > 100 µM

O.O=C([O-])c1ccccc1Nc1ccccc1C(=O)[O-].[Zn+2]
inactive: [1] 24.1 µM | [2] > 100 µM | [3] > 100 µM | [4] 38.4 µM | [5] 18.7 µM | [6] > 100 µM | [7] 22 µM | [8] 35.1 µM | [9] 30.5 µM | [10] 23.2 µM | [11] 31 µM | [12] 18.2 µM | [13] 19.8 µM | [14] 28.2 µM | [15] 17.4 µM | [16] 20.7 µM | [17] 20.4 µM | [18] 14.3 µM | [19] > 44.7 µM

N=C(N)C1=C(O)NC(=O)N(C2CCCCC2)C1
inactive: [1] > 100 µM | [2] > 100 µM | [3] > 100 µM | [4] > 100 µM | [5] > 100 µM | [6] > 100 µM | [7] > 100 µM | [8] > 100 µM | [9] > 100 µM | [10] > 100 µM | [11] > 100 µM | [12] > 100 µM | [13] > 100 µM | [14] > 100 µM | [15] > 100 µM | [16] > 100 µM | [17] > 100 µM | [18] > 100 µM | [19] > 100 µM

CN(CCO)c1nc(=O)c2c(n1C1OC(CO)C(O)C(O)C1O)CCCC2 (stereo not drawn)
inactive: [1] > 100 µM | [2] > 100 µM | [3] > 100 µM | [4] > 100 µM | [5] > 100 µM | [6] > 100 µM | [7] > 100 µM | [8] > 100 µM | [9] > 100 µM | [10] > 100 µM | [11] > 100 µM | [12] > 100 µM | [14] > 100 µM | [15] > 100 µM | [16] > 100 µM | [17] > 100 µM | [18] > 100 µM | [19] > 100 µM

COc1cc2nncc(Sc3cnnc4ccccc34)c2cc1OC
inactive: [1] 27.4 µM | [2] 20.1 µM | [3] 17.6 µM | [5] 6.14 µM | [6] 18.9 µM | [7] 23.3 µM | [8] 18 µM | [9] 22.2 µM | [10] 17.2 µM | [11] 23.7 µM | [12] > 10 µM | [13] 10.1 µM | [14] 27 µM | [15] 26.9 µM | [16] 16.7 µM | [17] 14.7 µM | [18] 23.1 µM | [19] 19.1 µM

C/C(=N\[N+](C)(C)C)C(c1ccccc1)C1(c2ccccc2)C(c2ccccc2)=C1c1ccccc1 (stereo not drawn)
inactive: [1] > 100 µM | [2] 88.1 µM | [3] > 100 µM | [4] > 100 µM | [5] 50.9 µM | [6] > 100 µM | [7] > 100 µM | [8] > 100 µM | [9] > 100 µM | [10] > 100 µM | [11] 19.4 µM | [12] > 100 µM | [13] > 100 µM | [14] > 100 µM | [15] 41.1 µM | [16] > 100 µM | [17] > 100 µM | [18] > 100 µM | [19] 53.1 µM

C#CCn1c(=O)c2cccnc2n(CC#C)c1=O
inactive: [1] > 100 µM | [2] > 100 µM | [3] > 100 µM | [4] > 100 µM | [5] > 100 µM | [6] > 100 µM | [7] > 100 µM | [8] > 100 µM | [9] > 100 µM | [10] > 100 µM | [11] > 100 µM | [12] > 100 µM | [13] > 100 µM | [14] > 100 µM | [15] > 100 µM | [16] > 100 µM | [17] > 100 µM | [18] > 100 µM
